Laboratory results published in ChEMBL document CHEMBL1201861, “Genomics of Drug Sensitity in Cancer screening data, Wellcome Trust Sanger Institute”.

Experiments:
Assay in all cases: cells
Settings in all cases: Homo sapiens
[1] = test system: COLO-824; assay type: functional, cell-based
Description: SANGER: Inhibition of human COLO-824 cell growth in a cell viability assay.

[2] = test system: COLO-829; assay type: functional, cell-based
Description: SANGER: Inhibition of human COLO-829 cell growth in a cell viability assay.

[3] = test system: CTV-1; assay type: functional, cell-based;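 also: growth inhibition of the cell line, read out with a cell viability assay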
Description: SANGER: Inhibition of human CTV-1 cell growth in a cell viability assay.

[4] = test system: Calu-6; assay type: functional, cell-based;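 also: growth of human Calu-6 cells, read out by a cell viability assay, IC50 marking inhibition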
Description: SANGER: Inhibition of human Calu-6 cell growth in a cell viability assay.

[5] = test system: DEL; assay type: functional, cell-based;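 also: growth inhibition of the human DEL cell line, read out with a cell viability assay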
Description: SANGER: Inhibition of human DEL cell growth in a cell viability assay.

[6] = test system: DMS-114; assay type: functional, cell-based
[7] = test system: DMS-79; assay type: functional, cell-based;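 also: growth inhibition measured with a cell viability assay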
Description: SANGER: Inhibition of human DMS-79 cell growth in a cell viability assay.

[8] = test system: DSH1; assay type: functional, cell-based;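 also: growth inhibition of human DSH1 cells, measured with a cell viability readout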
Description: SANGER: Inhibition of human DSH1 cell growth in a cell viability assay.

[9] = test system: EC-GI-10; assay type: functional, cell-based
Description: SANGER: Inhibition of human EC-GI-10 cell growth in a cell viability assay.

[10] = test system: ETK-1; assay type: functional, cell-based;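 also: growth inhibition of human ETK-1 cells, read out with a cell viability assay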
Description: SANGER: Inhibition of human ETK-1 cell growth in a cell viability assay.

[11] = test system: EW-24; assay type: functional, cell-based;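 also: human EW-24 cancer cell line, growth inhibition read out via a cell viability assay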
Description: SANGER: Inhibition of human EW-24 cell growth in a cell viability assay.

[12] = test system: EOL1; assay type: functional, cell-based;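 also: growth inhibition of EoL-1 cells, read out by a cell viability assay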
Description: SANGER: Inhibition of human EoL-1-cell cell growth in a cell viability assay.

[13] = test system: GAK; assay type: functional, cell-based;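 also: cell growth inhibition read out by a cell viability assay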
Description: SANGER: Inhibition of human GAK cell growth in a cell viability assay.

[14] = test system: HAL-01; assay type: functional, cell-based;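 also: growth inhibition of human HAL-01 cells, read out with a cell viability assay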
Description: SANGER: Inhibition of human HAL-01 cell growth in a cell viability assay.

[15] = test system: HCC1187; assay type: functional, cell-based;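 also: growth inhibition of HCC1187 cells, read out with a cell viability assay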
Description: SANGER: Inhibition of human HCC1187 cell growth in a cell viability assay.

[16] = test system: HD-MY-Z; assay type: functional, cell-based;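 also: growth inhibition of HD-MY-Z cells, read out with a cell viability assay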
Description: SANGER: Inhibition of human HD-MY-Z cell growth in a cell viability assay.

[17] = test system: HT-144; assay type: functional, cell-based
Description: SANGER: Inhibition of human HT-144 cell growth in a cell viability assay.

[18] = test system: IST-SL1; assay type: functional, cell-based;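 also: growth inhibition of human IST-SL1 cells, read out with a cell viability assay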
Description: SANGER: Inhibition of human IST-SL1 cell growth in a cell viability assay.

[19] = test system: JVM-2; assay type: functional, cell-based;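 also: growth inhibition of JVM-2 cells determined by a cell viability assay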
Description: SANGER: Inhibition of human JVM-2 cell growth in a cell viability assay.

[20] = test system: KALS-1; assay type: functional, cell-based;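 also: growth inhibition of KALS-1 cells, determined with a cell viability assay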
Description: SANGER: Inhibition of human KALS-1 cell growth in a cell viability assay.

[21] = test system: KU812 cell line; assay type: functional, cell-based;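 also: growth inhibition of KU812 cells, read out with a cell viability assay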
Description: SANGER: Inhibition of human KU812 cell growth in a cell viability assay.

[22] = test system: L-428; assay type: functional, cell-based
Description: SANGER: Inhibition of human L-428 cell growth in a cell viability assay.

[23] = test system: LAMA-84; assay type: functional, cell-based;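 also: growth inhibition of LAMA-84 cells, read out with a cell viability assay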
Description: SANGER: Inhibition of human LAMA-84 cell growth in a cell viability assay.

[24] = test system: LB2518-MEL; assay type: functional, cell-based;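 also: growth inhibition of human LB2518-MEL cells, measured with a cell viability assay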
Description: SANGER: Inhibition of human LB2518-MEL cell growth in a cell viability assay.

[25] = test system: LC-2-ad; assay type: functional, cell-based;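 also: growth inhibition of human LC-2-ad cells, read out with a cell viability assay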
Description: SANGER: Inhibition of human LC-2-ad cell growth in a cell viability assay.

[26] = test system: LU-139; assay type: functional, cell-based
Description: SANGER: Inhibition of human LU-139 cell growth in a cell viability assay.

[27] = test system: MC116; assay type: functional, cell-based;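 also: growth inhibition of MC116 cells, read out with a cell viability assay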
Description: SANGER: Inhibition of human MC116 cell growth in a cell viability assay.

[28] = test system: MFM-223; assay type: functional, cell-based
Description: SANGER: Inhibition of human MFM-223 cell growth in a cell viability assay.

[29] = test system: MPP-89; assay type: functional, cell-based;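 also: growth inhibition of human MPP-89 cells, read out with a cell viability assay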
Description: SANGER: Inhibition of human MPP-89 cell growth in a cell viability assay.

[30] = test system: MZ2-MEL; assay type: functional, cell-based;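 also: growth inhibition of MZ2-MEL cells read out with a cell viability assay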
Description: SANGER: Inhibition of human MZ2-MEL cell growth in a cell viability assay.

[31] = test system: NB13; assay type: functional, cell-based;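 also: cell viability readout measuring growth inhibition of human NB13 cells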
Description: SANGER: Inhibition of human NB13 cell growth in a cell viability assay.

[32] = test system: NCI-H1092; assay type: functional, cell-based;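 also: cell growth inhibition measured with a cell viability assay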
Description: SANGER: Inhibition of human NCI-H1092 cell growth in a cell viability assay.

[33] = test system: NCI-H1304; assay type: functional, cell-based;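 also: growth inhibition of the cancer cell line, measured in a cell viability assay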
Description: SANGER: Inhibition of human NCI-H1304 cell growth in a cell viability assay.

[34] = test system: NCI-H1395; assay type: functional, cell-based;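 also: cell viability assay read-out quantifying reduced proliferation of human NCI-H1395 cells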
Description: SANGER: Inhibition of human NCI-H1395 cell growth in a cell viability assay.

[35] = test system: NCI-H1770; assay type: functional, cell-based;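 also: growth inhibition of NCI-H1770 cells determined with a viability readout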
Description: SANGER: Inhibition of human NCI-H1770 cell growth in a cell viability assay.

[36] = test system: NCI-H2126; assay type: functional, cell-based;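 also: growth inhibition of the cancer cell line, determined with a cell viability readout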
Description: SANGER: Inhibition of human NCI-H2126 cell growth in a cell viability assay.

[37] = test system: NCI-H226; assay type: functional, cell-based;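 also: cell viability read-out used to gauge growth inhibition of the cells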
Description: SANGER: Inhibition of human NCI-H226 cell growth in a cell viability assay.

[38] = test system: NCI-H23; assay type: functional, cell-based;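 also: cell viability assay measuring growth inhibition of NCI-H23 cells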
Description: SANGER: Inhibition of human NCI-H23 cell growth in a cell viability assay.

[39] = test system: NCI-H510A; assay type: functional, cell-based;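 also: growth inhibition of NCI-H510A cells, read out with a cell viability assay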
Description: SANGER: Inhibition of human NCI-H510A cell growth in a cell viability assay.

[40] = test system: NCI-H720; assay type: functional, cell-based;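 also: growth inhibition of human NCI-H720 cells determined by a cell viability assay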
Description: SANGER: Inhibition of human NCI-H720 cell growth in a cell viability assay.

[41] = test system: NCI-H82; assay type: functional, cell-based;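 also: growth inhibition of NCI-H82 cells, measured with a cell viability readout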
Description: SANGER: Inhibition of human NCI-H82 cell growth in a cell viability assay.

[42] = test system: NH-12; assay type: functional, cell-based;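 also: growth inhibition of NH-12 cells, read out with a cell viability assay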
Description: SANGER: Inhibition of human NH-12 cell growth in a cell viability assay.

[43] = test system: OCI-AML2; assay type: functional, cell-based;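 also: growth inhibition of OCI-AML2 cells, read out with a cell viability assay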
Description: SANGER: Inhibition of human OCI-AML2 cell growth in a cell viability assay.

[44] = test system: OCUB-M; assay type: functional, cell-based;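 also: growth inhibition of the cancer cell line, read out through a cell viability assay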
Description: SANGER: Inhibition of human OCUB-M cell growth in a cell viability assay.

[45] = test system: OS-RC-2; assay type: functional, cell-based;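 also: growth inhibition of human OS-RC-2 cells, measured by a cell viability assay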
Description: SANGER: Inhibition of human OS-RC-2 cell growth in a cell viability assay.

[46] = test system: OVCAR-4; assay type: functional, cell-based;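 also: growth inhibition of human OVCAR-4 cells, measured with a cell viability assay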
Description: SANGER: Inhibition of human OVCAR-4 cell growth in a cell viability assay.

[47] = test system: RCC10RGB; assay type: functional, cell-based;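 also: growth inhibition of human RCC10RGB cells, read out by a cell viability assay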
Description: SANGER: Inhibition of human RCC10RGB cell growth in a cell viability assay.

[48] = test system: RH-1; assay type: functional, cell-based;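 also: growth inhibition of human RH-1 cells, read out with a cell viability assay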
Description: SANGER: Inhibition of human RH-1 cell growth in a cell viability assay.

[49] = test system: RS4-11; assay type: functional, cell-based;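 also: growth inhibition of RS4-11 cells, read out by a cell viability assay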
Description: SANGER: Inhibition of human RS4-11 cell growth in a cell viability assay.

[50] = test system: SCH; assay type: functional, cell-based;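 also: growth inhibition of human SCH cells, read out in a cell viability assay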
Description: SANGER: Inhibition of human SCH cell growth in a cell viability assay.

[51] = test system: SHP77; assay type: functional, cell-based, SHP-77;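 also: growth inhibition of human SHP-77 cells measured by a cell viability assay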
Description: SANGER: Inhibition of human SHP-77 cell growth in a cell viability assay.

[52] = test system: SK-N-DZ; assay type: functional, cell-based;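 also: growth inhibition of the cancer cell line, read out through a viability assay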
Description: SANGER: Inhibition of human SK-N-DZ cell growth in a cell viability assay.

[53] = test system: SK-N-FI; assay type: functional, cell-based;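 also: cell viability assay measuring growth inhibition of human SK-N-FI cells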
Description: SANGER: Inhibition of human SK-N-FI cell growth in a cell viability assay.

[54] = test system: SK-UT-1; assay type: functional, cell-based;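 also: growth inhibition of SK-UT-1 cells, measured by a cell viability assay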
Description: SANGER: Inhibition of human SK-UT-1 cell growth in a cell viability assay.

[55] = test system: SNB-75; assay type: functional, cell-based;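 also: cell viability assay measuring growth inhibition of human SNB-75 cells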
Description: SANGER: Inhibition of human SNB75 cell growth in a cell viability assay.

[56] = test system: SW684; assay type: functional, cell-based;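 also: growth inhibition of human SW684 cells, measured by a cell viability assay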
Description: SANGER: Inhibition of human SW684 cell growth in a cell viability assay.

[57] = test system: SW872; assay type: functional, cell-based;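 also: growth inhibition of SW872 cells, read out by a viability assay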
Description: SANGER: Inhibition of human SW872 cell growth in a cell viability assay.

[58] = test system: A3-KAW; assay type: functional, cell-based;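 also: growth inhibition of human A3-KAW cells, read out with a cell viability assay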
Description: SANGER: Inhibition of human A3-KAW cell growth in a cell viability assay.

[59] = test system: A498; assay type: functional, cell-based
Description: SANGER: Inhibition of human A498 cell growth in a cell viability assay.

[60] = test system: ATN-1; assay type: functional, cell-based
Description: SANGER: Inhibition of human ATN-1 cell growth in a cell viability assay.

[61] = test system: BB65-RCC; assay type: functional, cell-based
Description: SANGER: Inhibition of human BB65-RCC cell growth in a cell viability assay.

[62] = test system: BV-173; assay type: functional, cell-based
Description: SANGER: Inhibition of human BV-173 cell growth in a cell viability assay.

[63] = test system: TE-12; assay type: functional, cell-based
Description: SANGER: Inhibition of human TE-12 cell growth in a cell viability assay.

[64] = test system: TGBC1TKB; assay type: functional, cell-based
Description: SANGER: Inhibition of human TGBC1TKB cell growth in a cell viability assay.

[65] = test system: no-10; assay type: functional, cell-based
Description: SANGER: Inhibition of human no-10 cell growth in a cell viability assay.

[66] = test system: CAS-1; assay type: functional, cell-based
Description: SANGER: Inhibition of human CAS-1 cell growth in a cell viability assay.

Fc1cc(-c2cc[nH]/c(=N/c3ccc(-n4cnc(N5CCOCC5)n4)cc3)n2)cc(N2CCOCC2)c1
IC50 [1]: 0.637 µM
IC50 [2]: 0.52 µM
IC50 [3]: 0.405 µM
IC50 [4]: 0.518 µM
IC50 [5]: 0.289 µM
IC50 [6]: > 5.12 µM
IC50 [7]: 4.28 µM
IC50 [8]: 0.709 µM
IC50 [9]: 2.24 µM
IC50 [10]: 1.06 µM
IC50 [11]: > 5.12 µM
IC50 [12]: 0.501 µM
IC50 [13]: 0.79 µM
IC50 [14]: 0.704 µM
IC50 [15]: 0.594 µM
IC50 [16]: 1.14 µM
IC50 [17]: 0.147 µM
IC50 [18]: 0.775 µM
IC50 [19]: 3.3 µM
IC50 [20]: 0.451 µM
IC50 [21]: 0.338 µM
IC50 [22]: 0.649 µM
IC50 [23]: 2.95 µM
IC50 [24]: 0.54 µM
IC50 [25]: 0.35 µM
IC50 [26]: 1.97 µM
IC50 [27]: 0.411 µM
IC50 [28]: > 5.12 µM
IC50 [29]: 3.82 µM
IC50 [30]: 0.41 µM
IC50 [31]: 4.91 µM
IC50 [32]: 1.76 µM
IC50 [33]: 1.43 µM
IC50 [34]: > 5.12 µM
IC50 [35]: 0.805 µM
IC50 [36]: 0.536 µM
IC50 [37]: 1.43 µM
IC50 [38]: > 5.12 µM
IC50 [39]: > 5.12 µM
IC50 [40]: > 5.12 µM
IC50 [41]: > 5.12 µM
IC50 [42]: 0.465 µM
IC50 [43]: 0.498 µM
IC50 [44]: 3.03 µM
IC50 [45]: 0.39 µM
IC50 [46]: 0.467 µM
IC50 [47]: 0.889 µM
IC50 [48]: 0.919 µM
IC50 [49]: 0.28 µM
IC50 [50]: 3.25 µM
IC50 [51]: 0.825 µM
IC50 [52]: 1.86 µM
IC50 [53]: > 5.12 µM
IC50 [54]: 0.0616 µM
IC50 [55]: 0.291 µM
IC50 [56]: 3.04 µM
IC50 [57]: 0.539 µM
IC50 [58]: 0.294 µM
IC50 [59]: 0.171 µM
IC50 [60]: 0.505 µM
IC50 [61]: 0.924 µM
IC50 [62]: 0.736 µM
IC50 [63]: 1.21 µM
IC50 [64]: 1.88 µM
IC50 [65]: 1.84 µM
IC50 [66]: 2.23 µM

CC(O)(CS(=O)(=O)c1ccc(F)cc1)C(=O)Nc1ccc(C#N)c(C(F)(F)F)c1 (configuration not stated) [BICALUTAMIDE]
IC50 [1]: > 1.02 µM
IC50 [2]: > 1.02 µM
IC50 [3]: > 1.02 µM
IC50 [4]: > 1.02 µM
IC50 [5]: > 1.02 µM
IC50 [6]: > 1.02 µM
IC50 [7]: > 1.02 µM
IC50 [8]: > 1.02 µM
IC50 [9]: > 1.02 µM
IC50 [10]: > 1.02 µM
IC50 [11]: > 1.02 µM
IC50 [12]: > 1.02 µM
IC50 [13]: > 1.02 µM
IC50 [14]: > 1.02 µM
IC50 [15]: > 1.02 µM
IC50 [16]: > 1.02 µM
IC50 [17]: > 1.02 µM
IC50 [18]: > 1.02 µM
IC50 [19]: > 1.02 µM
IC50 [20]: > 1.02 µM
IC50 [21]: > 1.02 µM
IC50 [22]: > 1.02 µM
IC50 [23]: > 1.02 µM
IC50 [24]: > 1.02 µM
IC50 [25]: > 1.02 µM
IC50 [26]: > 1.02 µM
IC50 [27]: > 1.02 µM
IC50 [28]: > 1.02 µM
IC50 [29]: > 1.02 µM
IC50 [30]: > 1.02 µM
IC50 [31]: > 1.02 µM
IC50 [32]: > 1.02 µM
IC50 [33]: > 1.02 µM
IC50 [34]: > 1.02 µM
IC50 [35]: > 1.02 µM
IC50 [36]: > 1.02 µM
IC50 [37]: > 1.02 µM
IC50 [38]: > 1.02 µM
IC50 [39]: > 1.02 µM
IC50 [40]: > 1.02 µM
IC50 [41]: > 1.02 µM
IC50 [42]: > 1.02 µM
IC50 [43]: > 1.02 µM
IC50 [44]: > 1.02 µM
IC50 [45]: > 1.02 µM
IC50 [46]: > 1.02 µM
IC50 [47]: > 1.02 µM
IC50 [48]: > 1.02 µM
IC50 [49]: > 1.02 µM
IC50 [50]: > 1.02 µM
IC50 [51]: > 1.02 µM
IC50 [52]: > 1.02 µM
IC50 [53]: > 1.02 µM
IC50 [54]: > 1.02 µM
IC50 [55]: > 1.02 µM
IC50 [56]: > 1.02 µM
IC50 [57]: > 1.02 µM
IC50 [58]: > 1.02 µM
IC50 [59]: > 1.02 µM
IC50 [60]: > 1.02 µM
IC50 [61]: > 1.02 µM
IC50 [62]: > 1.02 µM
IC50 [63]: > 1.02 µM
IC50 [64]: > 1.02 µM
IC50 [65]: > 1.02 µM
IC50 [66]: > 1.02 µM
